From US20220017444A1, “BENZ[…] SURFACTANTS” (INDORAMA VENTURES OXIDES LLC, priority 2018, published 2022)

Test: Surface tensiometer characterization: critical micelle concentration and surface tension
Assay type: physicochemical
Conditions: surface tensiometer; FIG. 2
From the text: Dibenzhydryl resorcinol ethoxylates produced in Example 2 were characterized using a surface tensiometer to determine critical micelle concentration and surface tension.

**Q.** Which critical micelle concentration does the source give for Dibenzhydryl Resorcinol Ethoxylate here?
**A.** 4 ppm
